Test results: PMC5218480 (PLoS ONE, 2017)

System: MV-4-11 cells
Test: Gene expression microarray analysis (Affymetrix PrimeView) and GSEA
Type: cell-based, human
Set-up: RFU PODN (11730768_x_at) / Fold change /veh PODN (11730768_x_at) / RFU LINC00158 (11744669_a_at) / Fold change /veh LINC00158 (11744669_a_at) / RFU DUSP10 (11751237_a_at) / Fold change /veh DUSP10 (11751237_a_at) / RFU ID3 (11757404_x_at) / Fold change /veh ID3 (11757404_x_at) / RFU PLEKHG5 (11737974_s_at) / Fold change /veh PLEKHG5 (11737974_s_at) / RFU LRRC4B (11730491_at) / Fold change /veh LRRC4B (11730491_at) / RFU GIMAP4 (11747438_a_at) / Fold change /veh GIMAP4 (11747438_a_at) / RFU KRT8 (11758183_x_at) / Fold change /veh KRT8 (11758183_x_at) / RFU CNN1 (11734310_a_at) / Fold change /veh CNN1 (11734310_a_at) / RFU VPS37D (11726825_at) / Fold change /veh VPS37D (11726825_at) / RFU C10orf10 (11716522_x_at) / Fold change /veh C10orf10 (11716522_x_at) / RFU KIR2DL2 /// KIR2DL4 /// KIR2DL5A /// KIR2DL5B /// KIR2DS1 /// KIR2DS2 /// KIR2DS3 /// KIR2DS4 /// KIR3DL3 /// KIR3DL3 /// KIR3DS1 (11738374_at) / Fold change /veh KIR2DL2 /// KIR2DL4 /// KIR2DL5A /// KIR2DL5B /// KIR2DS1 /// KIR2DS2 /// KIR2DS3 /// KIR2DS4 /// KIR3DL3 /// KIR3DL3 /// KIR3DS1 (11738374_at) / RFU C1QL1 (11718748_at) / Fold change /veh C1QL1 (11718748_at) / RFU TMPRSS4 (11747572_a_at) / Fold change /veh TMPRSS4 (11747572_a_at) / RFU HAMP (11756126_x_at) / Fold change /veh HAMP (11756126_x_at) / RFU RNFT2 (11725882_a_at) / Fold change /veh RNFT2 (11725882_a_at) / RFU NR4A2 (11747474_a_at) / Fold change /veh NR4A2 (11747474_a_at) / RFU ABCC12 (11746883_a_at) / Fold change /veh ABCC12 (11746883_a_at) / RFU TMEM136 (11760407_x_at) / Fold change /veh TMEM136 (11760407_x_at) / RFU CLDN22 /// WWC2 (11732394_at) / Fold change /veh CLDN22 /// WWC2 (11732394_at) / RFU HLA-DPB1 (11760878_x_at) / Fold change /veh HLA-DPB1 (11760878_x_at) / RFU SPINT1 (11716480_a_at) / Fold change /veh SPINT1 (11716480_a_at) / RFU GAP43 (11754022_s_at) / Fold change /veh GAP43 (11754022_s_at) / RFU A4GNT (11735810_at) / Fold change /veh A4GNT (11735810_at) / RFU PRB3 (11715151_x_at) / Fold change /veh PRB3 (11715151_x_at) / RFU TUBB4B (11761932_at) / Fold change /veh TUBB4B (11761932_at) / RFU CAPN14 (11732068_a_at) / Fold change /veh CAPN14 (11732068_a_at) / RFU TMCC2 (11721928_a_at) / Fold change /veh TMCC2 (11721928_a_at) / RFU IRGQ (11745062_a_at) / Fold change /veh IRGQ (11745062_a_at) / RFU FAM174B (11720279_a_at) / Fold change /veh FAM174B (11720279_a_at) / RFU TMPRSS4 (11748680_a_at) / Fold change /veh TMPRSS4 (11748680_a_at) / RFU FAM212B (11763350_a_at) / Fold change /veh FAM212B (11763350_a_at) / RFU PLEKHG5 (11743358_a_at) / Fold change /veh PLEKHG5 (11743358_a_at) / RFU ZSCAN30 (11745921_a_at) / Fold change /veh ZSCAN30 (11745921_a_at) / RFU CMKLR1 (11741424_a_at) / Fold change /veh CMKLR1 (11741424_a_at) / RFU LOC101060620 /// MAPK8IP1 (11723275_at) / Fold change /veh LOC101060620 /// MAPK8IP1 (11723275_at) / RFU SPTSSB (11747773_x_at) / Fold change /veh SPTSSB (11747773_x_at) / RFU PRSS12 (11739890_at) / Fold change /veh PRSS12 (11739890_at) / RFU BIN1 (11741810_x_at) / Fold change /veh BIN1 (11741810_x_at) / RFU WNT11 (11732464_a_at) / Fold change /veh WNT11 (11732464_a_at) / RFU C10orf10 (11716521_a_at) / Fold change /veh C10orf10 (11716521_a_at) / RFU C5orf56 (11738089_at) / Fold change /veh C5orf56 (11738089_at) / RFU CYB561 (11721691_x_at) / Fold change /veh CYB561 (11721691_x_at) / RFU ANKRD19P (11752326_a_at) / Fold change /veh ANKRD19P (11752326_a_at) / RFU OR2T12 /// OR2T33 /// OR2T8 (11738714_s_at) / Fold change /veh OR2T12 /// OR2T33 /// OR2T8 (11738714_s_at) / RFU VCAN (11748164_a_at) / Fold change /veh VCAN (11748164_a_at) / RFU JSRP1 (11732532_at) / Fold change /veh JSRP1 (11732532_at) / RFU KRTAP10-11 (11738290_x_at) / Fold change /veh KRTAP10-11 (11738290_x_at) / RFU MYO3A (11730013_a_at) / Fold change /veh MYO3A (11730013_a_at) / RFU EBF3 (11725865_a_at) / Fold change /veh EBF3 (11725865_a_at) / RFU CAMK2N1 (11719241_x_at) / Fold change /veh CAMK2N1 (11719241_x_at) / RFU C5orf56 (11738088_a_at) / Fold change /veh C5orf56 (11738088_a_at) / RFU OLFML3 (11715873_a_at) / Fold change /veh OLFML3 (11715873_a_at) / RFU LOC100653217 /// NTM (11731650_a_at) / Fold change /veh LOC100653217 /// NTM (11731650_a_at) / RFU MAPK11 (11762145_a_at) / Fold change /veh MAPK11 (11762145_a_at) / RFU FIZ1 (11724087_x_at) / Fold change /veh FIZ1 (11724087_x_at) / RFU OASL (11726364_x_at) / Fold change /veh OASL (11726364_x_at) / RFU SOX15 (11748057_x_at) / Fold change /veh SOX15 (11748057_x_at) / RFU CD79A (11719716_a_at) / Fold change /veh CD79A (11719716_a_at) / RFU HIST1H1D (11736915_at) / Fold change /veh HIST1H1D (11736915_at) / RFU CASKIN2 (11723855_a_at) / Fold change /veh CASKIN2 (11723855_a_at) / RFU LOC730098 (11760151_x_at) / Fold change /veh LOC730098 (11760151_x_at) / RFU OR4N2 (11742367_at) / Fold change /veh OR4N2 (11742367_at) / RFU PRRT2 (11749266_a_at) / Fold change /veh PRRT2 (11749266_a_at) / RFU SNX32 (11753110_a_at) / Fold change /veh SNX32 (11753110_a_at) / RFU CDHR5 (11726645_a_at) / Fold change /veh CDHR5 (11726645_a_at) / RFU RCAN1 (11760418_a_at) / Fold change /veh RCAN1 (11760418_a_at) / RFU FAM167A (11723789_a_at) / Fold change /veh FAM167A (11723789_a_at) / RFU FAM26E (11764081_at) / Fold change /veh FAM26E (11764081_at) / RFU ISYNA1 (11749810_s_at) / Fold change /veh ISYNA1 (11749810_s_at) / RFU ACY1 (11761880_at) / Fold change /veh ACY1 (11761880_at) / RFU 11764098_at / Fold change /veh 11764098_at / RFU SAMD14 (11745864_x_at) / Fold change /veh SAMD14 (11745864_x_at) / RFU NPB (11741838_a_at) / Fold change /veh NPB (11741838_a_at) / RFU TMPRSS6 (11731388_a_at) / Fold change /veh TMPRSS6 (11731388_a_at) / RFU KRTAP10-2 (11738614_at) / Fold change /veh KRTAP10-2 (11738614_at) / RFU ARHGAP8 /// PRR5-ARHGAP8 (11727945_x_at) / Fold change /veh ARHGAP8 /// PRR5-ARHGAP8 (11727945_x_at) / RFU KRTAP5-7 /// NADSYN1 (11734609_at) / Fold change /veh KRTAP5-7 /// NADSYN1 (11734609_at) / RFU RASL12 (11751679_a_at) / Fold change /veh RASL12 (11751679_a_at) / RFU CDKN2B (11736163_a_at) / Fold change /veh CDKN2B (11736163_a_at) / RFU PRF1 (11729649_at) / Fold change /veh PRF1 (11729649_at) / RFU, ZNF638 /// ZNF638-IT1 / Fold change vs veh, ZNF638 /// ZNF638-IT1 / RFU, PANK3 / Fold change vs veh, PANK3 / RFU, SH3YL1 / Fold change vs veh, SH3YL1 / RFU, ZEB2 / Fold change vs veh, ZEB2 / RFU, NRIP1 / Fold change vs veh, NRIP1 / RFU, PTTG1IP / Fold change vs veh, PTTG1IP / RFU, CAPN2 / Fold change vs veh, CAPN2 / RFU, MED14 / Fold change vs veh, MED14 / RFU, SNORA58 / Fold change vs veh, SNORA58 / RFU, C1orf63 / Fold change vs veh, C1orf63 / RFU, LRRFIP1 / Fold change vs veh, LRRFIP1 / RFU, NDUFAF7 / Fold change vs veh, NDUFAF7 / RFU, SLC12A2 / Fold change vs veh, SLC12A2 / RFU, IBTK / Fold change vs veh, IBTK / RFU, ESF1 / Fold change vs veh, ESF1 / Fold change vs veh, TMEM50B / RFU, TAOK1 / Fold change vs veh, TAOK1 / RFU, ACBD3 / Fold change vs veh, ACBD3 / RFU, TMA16 / Fold change vs veh, TMA16 / RFU, RWDD3 / Fold change vs veh, RWDD3 / RFU, BCAT1 / Fold change vs veh, BCAT1 / RFU, EDEM3 / Fold change vs veh, EDEM3 / RFU, TMEM33 / Fold change vs veh, TMEM33 / RFU, WDR75 / Fold change vs veh, WDR75 / RFU, AHCTF1 / Fold change vs veh, AHCTF1 / RFU, TFRC / Fold change vs veh, TFRC / RFU, ZDHHC17 / Fold change vs veh, ZDHHC17 / RFU, NOM1 / Fold change vs veh, NOM1 / RFU, ARL8B / Fold change vs veh, ARL8B / RFU, ZBTB11 / Fold change vs veh, ZBTB11 / RFU, TAMM41 / Fold change vs veh, TAMM41 / RFU, KIAA1704 /// LOC100996395 / Fold change vs veh, KIAA1704 /// LOC100996395 / RFU, ING1 / Fold change vs veh, ING1 / RFU, TRMT61B / Fold change vs veh, TRMT61B / RFU, FUBP3 / Fold change vs veh, FUBP3 / RFU, TP53 / Fold change vs veh, TP53 / RFU, TNKS2 / Fold change vs veh, TNKS2 / RFU, ZFP14 / Fold change vs veh, ZFP14 / RFU, ACTR2 / Fold change vs veh, ACTR2 / RFU, PPP3R1 / Fold change vs veh, PPP3R1 / RFU, PIK3R1 / Fold change vs veh, PIK3R1 / RFU, HNRNPA1 / Fold change vs veh, HNRNPA1 / RFU, RNF170 / Fold change vs veh, RNF170 / RFU, ZNF28 / Fold change vs veh, ZNF28 / RFU, RNGTT / Fold change vs veh, RNGTT / RFU, OGT / Fold change vs veh, OGT / RFU, BRD1 / Fold change vs veh, BRD1 / RFU, MARS / Fold change vs veh, MARS / RFU, ZNF655 / Fold change vs veh, ZNF655 / RFU, FAHD1 / Fold change vs veh, FAHD1 / RFU, BDP1 / Fold change vs veh, BDP1 / RFU, LRRCC1 / Fold change vs veh, LRRCC1 / RFU, ARID1A / Fold change vs veh, ARID1A / RFU, ZNF146 / Fold change vs veh, ZNF146 / RFU, ZNF330 / Fold change vs veh, ZNF330 / RFU, GPN3 / Fold change vs veh, GPN3 / RFU, C9orf123 / Fold change vs veh, C9orf123 / RFU, N4BP2L2 / Fold change vs veh, N4BP2L2 / RFU, ARFIP1 / Fold change vs veh, ARFIP1 / RFU, FAM179B / Fold change vs veh, FAM179B / RFU, BCL10 / Fold change vs veh, BCL10 / RFU, UHRF1BP1L / Fold change vs veh, UHRF1BP1L / RFU, BET1 / Fold change vs veh, BET1 / RFU, CNOT2 / Fold change vs veh, CNOT2 / RFU, ZNF268 / Fold change vs veh, ZNF268 / Fold change vs veh, ZNF507 / RFU, DGCR2 / Fold change vs veh, DGCR2 / RFU, WDSUB1 / Fold change vs veh, WDSUB1 / Fold change vs veh, HSP90B1 /// MIR3652 / RFU, ADSS / Fold change vs veh, ADSS / RFU, GK / Fold change vs veh, GK / RFU, ZNF148 / Fold change vs veh, ZNF148 / RFU, TAF9 / Fold change vs veh, TAF9 / RFU, SLC1A5 / Fold change vs veh, SLC1A5 / RFU, SLMO2 / Fold change vs veh, SLMO2 / RFU, ABCC4 / Fold change vs veh, ABCC4 / RFU, LOC101060439 /// RAP1B / Fold change vs veh, LOC101060439 /// RAP1B / RFU, RFX7 / Fold change vs veh, RFX7 / RFU, GTPBP10 / Fold change vs veh, GTPBP10 / RFU, CNEP1R1 / Fold change vs veh, CNEP1R1 / RFU, BIVM-ERCC5 /// ERCC5 / Fold change vs veh, BIVM-ERCC5 /// ERCC5 / RFU, ILF3 / Fold change vs veh, ILF3 / RFU 11762660_at / Fold change /veh 11762660_at / RFU VCAN (11757783_s_at) / Fold change /veh VCAN (11757783_s_at) / RFU DDX43 (11728927_at) / Fold change /veh DDX43 (11728927_at) / RFU KRT8 (11758188_x_at) / Fold change /veh KRT8 (11758188_x_at) / RFU NKD1 (11759106_at) / Fold change /veh NKD1 (11759106_at) / RFU SRD5A1 (11742802_a_at) / Fold change /veh SRD5A1 (11742802_a_at) / RFU TPSAB1 /// TPSB2 (11721975_s_at) / Fold change /veh TPSAB1 /// TPSB2 (11721975_s_at) / RFU GSTM3 (11746129_a_at) / Fold change /veh GSTM3 (11746129_a_at) / RFU IL23R (11737362_x_at) / Fold change /veh IL23R (11737362_x_at) / RFU TMEM51 (11727254_a_at) / Fold change /veh TMEM51 (11727254_a_at) / RFU PIWIL2 (11732686_x_at) / Fold change /veh PIWIL2 (11732686_x_at) / RFU ORM1 (11744905_x_at) / Fold change /veh ORM1 (11744905_x_at) / RFU CCDC152 (11743942_at) / Fold change /veh CCDC152 (11743942_at) / RFU ECM1 (11717891_a_at) / Fold change /veh ECM1 (11717891_a_at) / RFU IL23R (11748794_a_at) / Fold change /veh IL23R (11748794_a_at) / RFU TNFAIP8L3 (11732012_x_at) / Fold change /veh TNFAIP8L3 (11732012_x_at) / RFU MBOAT4 (11741988_at) / Fold change /veh MBOAT4 (11741988_at) / RFU 11764193_at / Fold change /veh 11764193_at / RFU TMEM53 (11763286_at) / Fold change /veh TMEM53 (11763286_at) / RFU MAGEB2 (11727129_at) / Fold change /veh MAGEB2 (11727129_at) / RFU TMEM200A (11744735_a_at) / Fold change /veh TMEM200A (11744735_a_at) / RFU CCDC152 (11751479_a_at) / Fold change /veh CCDC152 (11751479_a_at) / RFU FAM211A (11726209_a_at) / Fold change /veh FAM211A (11726209_a_at) / RFU RGS16 (11746705_a_at) / Fold change /veh RGS16 (11746705_a_at) / RFU VCAN (11755009_s_at) / Fold change /veh VCAN (11755009_s_at) / RFU RHOB (11743442_s_at) / Fold change /veh RHOB (11743442_s_at) / RFU RGS16 (11720943_a_at) / Fold change /veh RGS16 (11720943_a_at) / RFU RGS16 (11720944_at) / Fold change /veh RGS16 (11720944_at) / RFU, VPS4B / Fold change vs veh, VPS4B / RFU, CREB1 / Fold change vs veh, CREB1 / RFU, DNAJC13 / Fold change vs veh, DNAJC13 / RFU, GNAQ / Fold change vs veh, GNAQ / RFU, CDK5R1 / Fold change vs veh, CDK5R1 / RFU, ZRANB3 / Fold change vs veh, ZRANB3 / RFU, CUL4A / Fold change vs veh, CUL4A / RFU, CCNY / Fold change vs veh, CCNY / RFU, UFL1 / Fold change vs veh, UFL1 / RFU, COG3 / Fold change vs veh, COG3 / RFU, DIAPH2 / Fold change vs veh, DIAPH2 / RFU, SKA2 / Fold change vs veh, SKA2 / RFU, AFF3 / Fold change vs veh, AFF3 / RFU, LMF1 / Fold change vs veh, LMF1 / RFU, IPO11 / Fold change vs veh, IPO11 / RFU, DFFB / Fold change vs veh, DFFB / RFU, FOXP1 / Fold change vs veh, FOXP1 / RFU, CARD8 / Fold change vs veh, CARD8 / RFU, STRN3 / Fold change vs veh, STRN3 / RFU, ADK / Fold change vs veh, ADK / RFU, RASSF2 / Fold change vs veh, RASSF2 / RFU, WIPF1 / Fold change vs veh, WIPF1 / RFU, LARP1B / Fold change vs veh, LARP1B / RFU, RASA1 / Fold change vs veh, RASA1 / RFU, RB1 / Fold change vs veh, RB1 / RFU, PPFIA1 / Fold change vs veh, PPFIA1 / RFU, MAT2A / Fold change vs veh, MAT2A / RFU, CCT5 / Fold change vs veh, CCT5 / RFU, WDR92 / Fold change vs veh, WDR92 / RFU, CUX1 / Fold change vs veh, CUX1 / RFU, TTC7A / Fold change vs veh, TTC7A / RFU, TMEM135 / Fold change vs veh, TMEM135 / RFU, DEPTOR / Fold change vs veh, DEPTOR / RFU, CPM / Fold change vs veh, CPM / RFU, DNAJB6 / Fold change vs veh, DNAJB6 / RFU, CACNA2D3 / Fold change vs veh, CACNA2D3 / RFU, DTX4 / Fold change vs veh, DTX4 / RFU, TFCP2 / Fold change vs veh, TFCP2 / RFU, GMCL1 /// GMCL1P1 / Fold change vs veh, GMCL1 /// GMCL1P1 / RFU, AEBP2 / Fold change vs veh, AEBP2 / RFU, SNHG1 /// SNORD22 /// SNORD25 /// SNORD26 /// SNORD27 /// SNORD28 /// SNORD29 /// SNORD31 / Fold change vs veh, SNHG1 /// SNORD22 /// SNORD25 /// SNORD26 /// SNORD27 /// SNORD28 /// SNORD29 /// SNORD31 / Fold change (Aza/veh), C12orf56 (ProbeSet 11735607_a_at) / Fold change (ACY-1035/veh), C12orf56 (ProbeSet 11735607_a_at) / Fold change (Aza/veh), FGFR1OP (ProbeSet 11751329_s_at) / Fold change (ACY-1035/veh), FGFR1OP (ProbeSet 11751329_s_at) / Fold change (Aza/veh), VPS36 (ProbeSet 11739960_a_at) / Fold change (ACY-1035/veh), VPS36 (ProbeSet 11739960_a_at) / RFU SYPL1 (11715823_x_at) / Fold change /veh SYPL1 (11715823_x_at) / RFU IGFBP7 (11715501_s_at) / Fold change /veh IGFBP7 (11715501_s_at) / RFU REEP3 (11722064_at) / Fold change /veh REEP3 (11722064_at) / RFU IGLL1 (11728026_x_at) / Fold change /veh IGLL1 (11728026_x_at): dose or concentration left out as unconfirmed
Settings: MV-4-11 cells, 48 hours

Nc1ncn([C@@H]2O[C@H](CO)[C@@H](O)[C@H]2O)c(=O)n1 [azacitidine]
RFU BIN1 (11741810_x_at): 29.77 RFU
